Test results: publication PMC4257840 (Journal of Medicinal Chemistry, 2014)

What was measured:
Format in all cases: biochemical
[1] = molecular target: T1, human recombinant caspase 1 (Homo sapiens, UniProt P29466); test: Protease counter-screening: Caspase 1
T1 construct: host or cells: E. coli
Method: (§1) Appendix 7. Protease Counter -Screening
(§2) Protease counter-screeni ng was performed using the methods described below. Initial screening was conducted in duplicate using a single test substance concentration of 10 µ M .
(§3) Additional assays were conducted in replicate for selected pairin gs of test s ubstance and enz yme in order to enable the determination of IC50 values using conventional procedures.
(§4) Determination of K i was made using the Batch K i program (Biokin Ltd, Pullman, WA) to derive values from the Morrison equation: […]
(§5) Where [E ] is the active enz yme concentration, Kiapp is the apparent inhibition const ant, v 0 is the control velocit y in the absence of inhibitors, vb is the background velocity, v is the initial reaction velocit y in the presence of inhibitor, and I is the inhibitor concentration.Thence:
(§6) Where [S ] is the substrate concentration and KM is the Michealis constant. […]
(§7) by addition of 50 µM Ac-DEVD-AMC for another 60 min incubation period. The amount of AMC formed was determined fluorimetricall y (excitation 360 nm/emission 465 nm). […]
(§8) by addition of 25 µM Ac-LEH D-A FC for another 60 min incubation period. The amount of amino-4- trifluorometh ylcoumarin (AFC) formed determined fluorimetrically (400nm/ 510nm).
(§9) Cathepsin C: Cathepsin C from bovine spleen was used as the source of enz yme. […] T he amount of AMC product formed was read spectrofluorimetrically

[2] = molecular target: T2, human recombinant caspase 9 (Homo sapiens, UniProt P55211); test: Protease counter-screening: Caspase 9
T2 construct: host or cells: E. coli
T2 sequence (P55211 1-315 limits assumed): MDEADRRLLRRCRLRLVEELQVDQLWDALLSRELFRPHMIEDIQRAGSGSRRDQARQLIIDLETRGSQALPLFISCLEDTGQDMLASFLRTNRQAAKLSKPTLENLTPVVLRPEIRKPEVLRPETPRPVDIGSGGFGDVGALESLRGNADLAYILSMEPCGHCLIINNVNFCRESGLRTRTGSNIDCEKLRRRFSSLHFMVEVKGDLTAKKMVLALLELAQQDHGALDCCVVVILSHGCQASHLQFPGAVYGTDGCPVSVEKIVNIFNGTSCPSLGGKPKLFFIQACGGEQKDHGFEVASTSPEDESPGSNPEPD
T2 sequence (P55211 331-416 limits assumed): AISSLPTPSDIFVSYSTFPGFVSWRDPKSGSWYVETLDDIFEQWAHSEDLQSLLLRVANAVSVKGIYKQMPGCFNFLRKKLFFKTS
Method: as §1, §2, §3, §4, §5, §6, §7, §8, §9

[3] = molecular target: T3, Cathepsin C from bovine spleen (Bos taurus, UniProt Q3ZCJ8); test: Protease counter-screening: Cathepsin C
T3 construct: Cathepsin C from bovine spleen was used as the source of; from tissue; host or cells: bovine spleen
T3 sequence (Q3ZCJ8 25-463): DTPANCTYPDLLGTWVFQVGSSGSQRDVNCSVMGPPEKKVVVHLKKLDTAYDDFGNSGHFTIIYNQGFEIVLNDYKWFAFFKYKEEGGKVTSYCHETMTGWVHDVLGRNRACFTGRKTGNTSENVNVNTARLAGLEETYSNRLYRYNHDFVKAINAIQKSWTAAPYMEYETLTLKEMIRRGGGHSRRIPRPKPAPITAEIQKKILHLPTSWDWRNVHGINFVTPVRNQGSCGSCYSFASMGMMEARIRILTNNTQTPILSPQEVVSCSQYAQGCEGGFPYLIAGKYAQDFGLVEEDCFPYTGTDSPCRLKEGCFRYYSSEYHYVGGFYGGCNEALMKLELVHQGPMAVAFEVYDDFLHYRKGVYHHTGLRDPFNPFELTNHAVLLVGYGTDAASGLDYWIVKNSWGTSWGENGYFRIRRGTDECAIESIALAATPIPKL
Method: as §1, §2, §3, §4, §5, §6, §7, §8, §9

Human pancreatic trypsin = test: Protease counter-screening: Trypsin; conditions: 10 µM
Method: as §1, §2, §3, §4, §5
Where [S ] is the substrate concentration and KM is the Michealis constant.
Caspase 1: Activity against human recombinant caspase 1 expressed in E. coli was tested using Ac-YVAD- AMC as the substrate. Test compound or vehicle was pre- incubated with 600 […]
followed by excitation/emission at 485/535 nm. […]
AMC formation was read at 360 nm/465 nm.
Cathepsin L2: Human recombinant cathepsin L2 expressed in NS0 cells was used as the enzyme source. […] Form ation of AMC was measured at 360 […]
The amount of AMC formed was read spectrofluorimetricall y at 360 nm/465 nm. […]

[4] = molecular target: T4, cathepsin H purified from human liver (Homo sapiens, UniProt P09668); test: Protease counter-screening: Cathepsin H
T4 construct: Tests were performed using cathepsin H purified from human liver; from tissue; host or cells: human liver
T4 sequence (P09668 98-335): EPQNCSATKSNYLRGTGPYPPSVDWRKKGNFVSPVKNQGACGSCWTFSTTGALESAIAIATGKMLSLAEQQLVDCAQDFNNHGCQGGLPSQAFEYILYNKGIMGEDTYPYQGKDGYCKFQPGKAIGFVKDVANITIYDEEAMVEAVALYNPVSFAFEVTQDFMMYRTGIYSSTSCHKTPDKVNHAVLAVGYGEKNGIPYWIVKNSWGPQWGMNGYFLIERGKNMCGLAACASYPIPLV
Method: Cathep sin H: Tests were performed using cathepsin H purified from human liver. Test compound or vehicle was pre -incubated with 3.3 mU/mL enz yme in sodium acetate buffer pH 5.5 for 15 min at 25 °C. The reaction was initiated by addition of 20 µM L-RR- AMC for another

[5] = molecular target: T5, angiotensin converting enzyme from rabbit lung (Oryctolagus cuniculus, UniProt P12822); test: Protease counter-screening: Angiotensin converting enzyme
T5 construct: rabbit lung; from tissue; host or cells: rabbit lung
T5 sequence (P12822 34-1310): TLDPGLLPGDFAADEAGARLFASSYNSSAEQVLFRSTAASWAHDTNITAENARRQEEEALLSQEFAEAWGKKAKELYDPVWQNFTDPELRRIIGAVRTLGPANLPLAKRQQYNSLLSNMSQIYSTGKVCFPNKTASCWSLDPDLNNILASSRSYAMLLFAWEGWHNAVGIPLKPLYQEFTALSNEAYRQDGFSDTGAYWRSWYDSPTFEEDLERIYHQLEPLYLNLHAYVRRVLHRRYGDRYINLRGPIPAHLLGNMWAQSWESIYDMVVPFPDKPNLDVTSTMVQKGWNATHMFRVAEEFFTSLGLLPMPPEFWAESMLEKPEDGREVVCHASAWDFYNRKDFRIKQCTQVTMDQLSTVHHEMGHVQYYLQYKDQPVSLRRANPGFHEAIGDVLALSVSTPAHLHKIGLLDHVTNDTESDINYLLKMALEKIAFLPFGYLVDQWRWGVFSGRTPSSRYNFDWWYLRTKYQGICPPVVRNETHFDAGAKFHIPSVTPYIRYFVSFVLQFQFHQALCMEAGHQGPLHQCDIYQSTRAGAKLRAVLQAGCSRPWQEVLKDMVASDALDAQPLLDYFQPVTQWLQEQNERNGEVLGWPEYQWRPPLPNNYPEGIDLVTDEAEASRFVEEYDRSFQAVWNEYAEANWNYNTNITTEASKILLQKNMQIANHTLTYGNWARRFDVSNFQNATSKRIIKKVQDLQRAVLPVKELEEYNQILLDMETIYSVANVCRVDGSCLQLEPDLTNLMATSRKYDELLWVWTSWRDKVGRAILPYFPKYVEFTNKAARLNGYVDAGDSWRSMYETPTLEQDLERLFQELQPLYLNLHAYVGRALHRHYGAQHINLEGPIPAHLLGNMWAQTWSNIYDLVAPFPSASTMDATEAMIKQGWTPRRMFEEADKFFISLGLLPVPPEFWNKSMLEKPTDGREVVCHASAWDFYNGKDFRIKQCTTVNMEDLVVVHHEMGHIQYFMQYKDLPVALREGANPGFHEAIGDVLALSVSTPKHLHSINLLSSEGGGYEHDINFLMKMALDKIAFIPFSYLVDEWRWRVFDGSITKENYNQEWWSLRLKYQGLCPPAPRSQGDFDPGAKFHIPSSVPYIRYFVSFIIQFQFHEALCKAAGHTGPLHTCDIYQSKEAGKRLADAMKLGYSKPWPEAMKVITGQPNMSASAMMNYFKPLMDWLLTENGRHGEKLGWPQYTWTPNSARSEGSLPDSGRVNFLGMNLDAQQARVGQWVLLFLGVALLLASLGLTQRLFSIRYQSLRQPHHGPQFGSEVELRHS
Method: as §1, §2, §3, §4
MMP-9: Human recombinant MMP-9 proenz yme ex pressed in mammalian cells was activated with APMA for 60 min at 37 °C. […] The amount of MCA-P LG formed was read spectrofluorimetricall y at 340 nm/400 nm.
ADAM-17/TACE: Human recombinant ADAM-17 expressed in Sf21 insect cells was used as enz yme sour ce. […] T he amount of MCA-P LAQA formed w as read spectro fluorimetricall y at 340 nm/400 nm.
Angiotensin converting enzyme: Test compound or vehicle was pre- incubated in modified HEPES buffer pH 7.5 for 15 min at 25 °C with 31 mU/mL angiotensin converting enz yme from rabbit lung. […] The amount of substrate remaining was read spectrophotometricall y at 340 nm and used to deri ve the extent of reaction and its inhibition. […]

T1 sequence (P29466 120-297 limits assumed): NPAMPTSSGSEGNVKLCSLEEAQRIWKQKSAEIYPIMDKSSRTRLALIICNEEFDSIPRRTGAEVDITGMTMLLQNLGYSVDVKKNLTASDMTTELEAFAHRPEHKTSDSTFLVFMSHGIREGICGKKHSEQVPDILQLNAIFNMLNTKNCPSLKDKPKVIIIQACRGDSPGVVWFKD
T1 sequence (P29466 317-404 limits assumed): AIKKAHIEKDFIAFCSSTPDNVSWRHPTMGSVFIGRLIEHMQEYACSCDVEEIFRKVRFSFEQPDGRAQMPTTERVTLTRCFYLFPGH

`CC(C)[C@H](NC(=O)[C@H](C)NC(=O)[C@@H](NC(=O)c1ccccc1)C(C)(C)C)C(=O)C(=O)NCc1ccccc1` [Compound 38, N-{(S)-1-[(S)-1-((S)-1-Benzylaminooxalyl-2-methyl-propylcarbamoyl)-ethylcarbamoyl]-2,2-dimethyl-propyl}-benzamide] showed an inhibition at 10 µM [1] of 8%, an inhibition at 10 µM [2] of 0% and an inhibition at 10 µM [3] of 0%. The Trypsin inhibition (Human pancreatic trypsin) was 9%, the inhibition at 10 µM [4] was 13% and the inhibition at 10 µM [5] was 0%.
